# Measurements reported in paper PMC8201173, “Inhibition of Carbonic Anhydrase IX Promotes Apoptosis through Intracellular pH Level Alterations in Cervical Cancer Cells” (International Journal of Molecular Sciences, 2021).
# Assays:
# [1] = tested on: HeLa cells; experiment: Mitochondrial membrane potential (JC-1); format: cell-based; conditions: JC-1 dye
# Experimental: Mitochondrial membrane potential (MMP) changes were spectrophotometrically detected. MMP was measured in a fluorometry device (Spectramax M5, BioTek, VT, USA) at wavelengths of 490 nm (excitation) and 530 nm (emission) in suitable conditions according to the manufacturer protocol (Sigma-Aldrich-CS0390, Germany).
# [2] = tested on: MDA-MB-231; experiment: WST-1 cytotoxicity assay, MDA-MB-231; format: cell-based; conditions: Homo sapiens
# Experimental: We used cancer and normal cell lines purchased from ATCC (American Type Culture Collection) and ECACC (European Collection of Authenticated Cell Cultures) and stored in liquid nitrogen.
# The cells were planted in 96 well plates (10^4 cells per well). […] WST-1 reactive of 10 µL was added in all wells. Following 4 h incubation, the measurements were carried out in a plate reader (Spectramax M5, BioTek, VT, USA) at wavelengths of 450 and 630 nm.
# [3] = tested on: HeLa cells; experiment: Acridine orange/ethidium bromide (AO/EB) staining; format: cell-based; conditions: HeLa, 10, 25 and 50 µM, 24 h
# Experimental: After 24 h incubation of HeLa cells in 12 well-plates at 5 × 10^4 cell/mL, the compound E at concentrations of 10–50 μM was added on plates, and the cells were incubated at 37 °C for 24 h. The cells were then washed with PBS and incubated in a solution including 100 μL acridine orange (100 µg/mL) and ethidium bromide (100 µg/mL) at room temperature for 5 min. The morphological changes were investigated under fluorescent microscopy (Olympus CKX 51, DP73, USA).
# [4] = tested on: HeLa cells; experiment: Western blot of apoptotic proteins and CAIX; format: cell-based; conditions: 24 h
# Experimental: The cells were seeded on 6 cm^2 cell culture dishes and treated with the compound E at doses of 10–25–50 μM, for 24 h. The cells were then washed by cold PBS, which was followed by lysis with RIPA lysis tampon (10 mM Tris-HC1 pH:8.1 mM EDTA, 1 mM EGTA, 140 mM NaCl, 1% TritonX-100, 0.1 SDS, 0.1% Sodium deoxycholate), 1X phosphates, and protease inhibitor (Santa Cruz, Heidelberg, Germany). Acquired supernatant was centrifuged at 12,000× g for 10 min and transferred to new tubes. Protein concentration was detected using the protein assay kit BCA (Thermo Fisher Scientific, MA, USA). Following protein (50 µg) standing in 10% SDS-PAGE gel at 50 V for 30 min and 80 V for 3 h, the proteins were blotted to PVDF membrane at 70 V for 5 min (Bio-Rad Turbo Transfer System). After blocking in 1X TBST (12.1 gr Tris, pH 7.5, 70 gr NaCl, %0.1 Tween-20) containing 5% dry milk or 5% BSA, the primer monoclonal antibodies shown in Table 3 were administrated to the membrane overnight, which was followed by washing with 1 X TBS-T and incubation period with secondary antibodies HRP rabbit or mouse (1/10.000) for 60 min. The membrane was washed with 1 X TBS-T again. For band imaging, ECL substrate (EMD Millipore Corp., MA, USA) was used in the imaging system (LI-COR Odyssey Fc, NE, USA).
# [5] = biological target: hCAIX; parameters: method as in PMID 25913118, PMID 26803577; conditions: stopped-flow CO2 hydration assay; cited from earlier work
# [6] = tested on: HeLa cells; experiment: Intracellular ROS detection (ROS Deep Red); format: cell-based; conditions: ROS red dye, 0–200 μM, 1 h
# Experimental: Intracellular free radicals were measured using the Cellular Reactive Oxygen Species Detection Assay commercial kit (Abcam-186027, Cambridge, UK). In this kit, a fluorescence probe that is permeable to cells was used. When the probe reacts with ROS, it produces red fluorescence. According to the kit protocol, the cells were planted in black plates and incubated for 24 h. The compound E in PBS was administered at doses of 0–200 μM and incubated at 37 °C within an atmosphere of 5 % CO2 for 1 h (protected from light). After the compound E was poured out, the wells were filled with 100 µL of ROS Deep Red Working Solution, and then they were incubated at 37°C under an atmosphere of 5 % CO2 for 1 h. A fluorometry device (Spectramax M5, BioTek, VT, USA) Ex/Em: 650/675 nm (cut off: 665 nm) was used for the measuring.
# [7] = tested on: HEK-293; experiment: WST-1 cytotoxicity assay, HEK-293; format: cell-based; conditions: Homo sapiens
# Experimental: We used cancer and normal cell lines purchased from ATCC (American Type Culture Collection) and ECACC (European Collection of Authenticated Cell Cultures) and stored in liquid nitrogen. HT-29 (ATCC: HTB-38, colon adenoma cancer), HeLa (ATCC: CCL-2, cervix adenoma cancer cell), MDA-MB-231 (ATCC: HTB-26, breast adenoma cancer cell), and HEK-293 (ATCC: CRL-1573, embryonic kidney epithelial cell) cell lines were incubated in DMEM-F12 (Sigma-Aldrich, Germany), including 10% Fetal Bovine Serum (FBS), 100 μg/mL streptomycin/100 IU/mL penicillin, at 37 °C in an incubator containing 5% CO2, 95% air in a humid atmosphere. PNT-1A (ECACC: 95012614, normal prostate cells) cell line was incubated in RPMI-1640 medium, including %10 FBS, 100 μg/mL streptomycin/100 IU/mL penicillin, at 37 °C in an incubator containing 5% CO2, 95% air in a humid atmosphere.
# The cytotoxic effects of compound E were evaluated with WST kit (Roche, Basel, Switzerland) in accordance with manufacturer protocols. The cells were planted in 96 well plates (10^4 cells per well). After 24 h of incubation, compound E at doses of 0, 2.5, 5, 10, 25, 50, 100, and 200 μM was administrated on the cell lines for 24, 48, and 72 h, and 5-FU on the control cell line with the same doses. WST-1 reactive of 10 µL was added in all wells. Following 4 h incubation, the measurements were carried out in a plate reader (Spectramax M5, BioTek, VT, USA) at wavelengths of 450 and 630 nm. Consequently, graphs were created, and the IC50 values of compound E and 5-fluorouracil were calculated. Selectivity index (SI) can be defined as the ratio of the toxic concentration of a sample against its effective compound concentration.
smiles,measurement,setting,value
"NS(=O)(=O)c1ccc(CCNCc2cc(Br)ccc2O)cc1 [Compound E, 4-(2-((5-bromo-2-hydroxybenzyl)amino)ethyl) benzenesulphonamide]",Mitochondrial membrane potential (MMP),[1],disrupts mitochondrial membrane potential in HeLa cells
same,IC50,"[2]; MDA-MB-231, 24 h",1948 ± 4.65 µM
same,IC50,"[2]; MDA-MB-231, 48 h",205 ± 3.55 µM
same,IC50,"[2]; MDA-MB-231, 72 h",62.9 ± 10.3 µM
same,Apoptotic morphology (AO/EB staining),[3],observed both markers of apoptosis in HeLa cells
same,CAIX protein level,[4]; 25 µM,effective for inhibiton of CAIX protein
same,Cleaved PARP protein level,"[4]; 10 and 25 µM, vs WT",increased PARP protein level
same,"Cleaved caspase 3, 8, and 9 protein levels","[4]; 10–25–50 μM, vs WT",increased
same,Pro-caspase 3 protein level,"[4]; 10–25–50 μM, vs WT",decreased
same,Ki,[5],0.0043 µM
same,Intracellular ROS level,[6],amount of ROS increased in a manner dose-dependent
same,IC50,"[7]; HEK293, HEK-293, 24 h",152 ± 3.44 µM
same,IC50,"[7]; HEK293, HEK-293, 48 h",296 ± 4.67 µM
same,IC50,"[7]; HEK293, HEK-293, 72 h",76.1 ± 2.1 µM
same,melting point,,189 to 191 °C
